Values after ≈ are worked out from the molar mass of the structure shown. Values joined by “and” are separate entries in the source; they are usually repeats but may differ in a detail not shown here. Identical values can stand only once. Like-named read-outs stand apart in the source and are kept apart here.
Key:
Adenovirus 5 = test: In vitro antiviral assay, inhibition of CPE, adenovirus 5; assay type: cell-based; conditions: Human mastadenovirus C, HEp-2, HEp2 cells, Table 1 experiment 2, read-out: ED50 (the source's name)
RSV or influenza virus = conditions: cited from earlier work
RSV A2 [1] = test: RSV infection of cotton rats, intraperitoneal dosing, lung titer; assay type: in vivo, Hispid Cotton Rats; conditions: for % kill: versus control; for ED50: 3-day intraperitoneal dosing
Description: Control animals received an equal volume of distilled water. […] All animals were killed on day 5. Lungs were removed and washed via transpleural lavage. The fluid collected was assessed for RSV titer in a microtiter assay using HEp2 cells.
(§1) Tissue control wells contained medium, but no virus. […] Virus control wells were observed daily. […] In addition to visual CPE, inhibition of syncytia formation is used to confirm activity against RSV. Lung RSV titer logm was calculated as described by Dubovi et al., 1983; 1984.

PIV-1 = test: In vitro antiviral assay, inhibition of CPE, PIV-1
Influenza B = test: microbe, parasite or virus in culture; assay type: cell-based; conditions: for ED50: FLU-B; for EC50: Influenza B virus
Parainfluenza virus 3 = test: microbe, parasite or virus in culture; assay type: cell-based
Measles = test: In vitro antiviral assay, inhibition of CPE, measles; assay type: cell-based, Measles virus; conditions: Measles morbillivirus, HEp-2, HEp2 cells, Table 1 experiments 1-2, read-out: ED50 (the source's name)
Influenza A/NWS/33 virus [2] = conditions: for influenza inhibition (words): 75 mg/kg/day i.p.
RSV A2 [3] = test: RSV infection of cotton rats, oral dosing, lung titer; assay type: in vivo, Hispid Cotton Rats; conditions: for ED50: human respiratory syncytial virus, 72 h, 3-day oral dosing
Description: as §1
All animals were killed on day 5 and lung tissues were collected. Lungs were removed and washed via transpleural lavage. The fluid collected was assessed for RSV titer in a microtiter assay using HEp2 cells as described above.

Influenza A = test: microbe, parasite or virus in culture; assay type: cell-based; conditions: for EC50: Influenza A virus
Adenovirus 7 = test: In vitro antiviral assay, inhibition of CPE, adenovirus 7; assay type: cell-based; conditions: Human mastadenovirus B, HEp-2, HEp2 cells, Table 1 experiments 2-3, read-out: ED50 (the source's name)
[4] = tested on: Respiratory syncytial virus (RSV); test: microbe, parasite or virus in culture; assay type: cell-based; conditions: human respiratory syncytial virus
[5] = Table 16; 75 mg/kg/day i.p. bid × 5; female
Influenza A/NWS/33 virus [6] = conditions: i.p. once daily for 8 days
Influenza viruses = conditions: cited from earlier work
[7] = Persinos et al., 1979; cited from earlier work
[8] = tested on: RNA-directed DNA polymerase; conditions: Sethi, 1977; cited from earlier work
[9] = 75 mg/kg/day i.p. bid × 5, days 2, 4, 6, 8
[10] = 75 mg/kg/day i.p. bid × 5 from 4 hr post-virus, female

NC(=O)c1ncn([C@@H]2O[C@H](CO)[C@@H](O)[C@H]2O)n1 [Ribavirin, 1-β-D-ribofuranosyl-1,2,4-triazole 3-carboxamide]
EC50 (Adenovirus 5): > 1000 µg/mL
severity of illness and amount of virus shed (RSV or influenza virus; acute respiratory infections): reduce the severity of illness and amount of virus shed
teratogenicity (RSV or influenza virus; in animals): teratogenic in animals
Lung titer (RSV titer log 10/g lung, Mean ± S.D.) (RSV A2 [1]; 10 mg/kg i.p.): 4.5 ± 0.2 log 10 /g lung
Lung titer (antilog, in parentheses) (RSV A2 [1]; 10 mg/kg i.p.): 31,622
% kill (RSV A2 [1]; 10 mg/kg i.p.): 0%
Lung titer (RSV titer log 10/g lung, Mean ± S.D.) (RSV A2 [1]; 30 mg/kg i.p.): 4.0 ± 0.3 log 10 /g lung
Lung titer (antilog, in parentheses) (RSV A2 [1]; 30 mg/kg i.p.): 10,000
% kill (RSV A2 [1]; 30 mg/kg i.p.): 68.4%
reduction in lung titers (RSV A2 [1]; 40 mg/kg i.p.): 50%
Lung titer (RSV titer log 10/g lung, Mean ± S.D.) (RSV A2 [1]; 90 mg/kg i.p.): 2.8 ± 0.3 log 10 /g lung
Lung titer (antilog, in parentheses) (RSV A2 [1]; 90 mg/kg i.p.): 631
% kill (RSV A2 [1]; 90 mg/kg i.p.): 98%
ED50 (RSV A2 [1]; individual experiments): 30 mg/kg and 50 mg/kg
ED50 (RSV A2 [1]; human respiratory syncytial virus, ip, 72 h, individual experiments, read-out: ED50): 40 mg/kg
ED50 (RSV A2 [1]; human respiratory syncytial virus, ip, 72 h, mean, read-out: ED50, Mean ± S.E.M.): 40 ± 6 mg/kg
EC50 (PIV-1; HEp-2, read-out: ED50, MEAN, PIV-1, mean): 10.7 µg/mL (≈ 43.8 µM)
EC50 (PIV-1; HEp-2, read-out: ED50, PIV-1): 12 µg/mL (≈ 49.1 µM)
ED50 (PIV-1; PIV-1): 8.0 µg/mL (≈ 32.8 µM)
ED50 (Influenza B; B-USSR): 7.8 µg/mL (≈ 31.9 µM)
ED50 (Influenza B; B-Yamagata): 8.0 µg/mL (≈ 32.8 µM)
EC50 (Influenza B; HEp-2, FLU-B, B-HongKong, read-out: ED50 (the source's name)): 1 µg/mL (≈ 4.09 µM)
EC50 (Influenza B; HEp-2, FLU-B, B-USSR, read-out: ED50 (the source's name)): 4 µg/mL (≈ 16.4 µM)
EC50 (Influenza B; HEp-2, FLU-B, B-Yamagata, read-out: ED50 (the source's name)): 6 µg/mL (≈ 24.6 µM)
EC50 (Influenza B; HEp-2, FLU-B, mean of all strains, read-out: ED50, MEAN): 5.8 µg/mL (≈ 23.8 µM)
EC50 (Influenza B; HEp-2, Influenza B, HEp2 cells, Table 1 experiments 1-2, read-out: ED50 (the source's name)): 18 µg/mL (≈ 73.7 µM)
EC50 (Parainfluenza virus 3; HEp-2, PIV-3, mean, read-out: ED50, MEAN): 15.4 µg/mL (≈ 63.1 µM)
EC50 (Parainfluenza virus 3; HEp-2, Parainfluenza virus (3), HEp2 cells, Table 1 experiments 1-3, read-out: ED50 (the source's name)): 15.6 µg/mL (≈ 63.9 µM)
ED50 (Parainfluenza virus 3; PIV-3): 16.0 µg/mL (≈ 65.5 µM)
ED50 (Parainfluenza virus 3; Parainfluenza virus (3), HEp2 cells, Table 1 experiments 1-3): 15.7 µg/mL and 12 µg/mL
EC50 (Measles): 31.3 µg/mL (≈ 128 µM)
CC50 (in vitro; ID50, FLU-A, B-Japan experiment): 78 µg/mL (≈ 319 µM)
CC50 (in vitro; ID50, FLU-A, B-NWS/33 experiment): 100 µg/mL (≈ 409 µM)
CC50 (in vitro; ID50, FLU-A, B-Portchalm experiment): 68 µg/mL (≈ 278 µM)
CC50 (in vitro; ID50, FLU-B, B-HongKong experiment): 80 µg/mL (≈ 328 µM)
CC50 (in vitro; ID50, MEAN, FLU-A experiments, mean): 750 µg/mL (≈ 3070 µM)
CC50 (in vitro; ID50, MEAN, FLU-B experiments, mean): 847 µg/mL (≈ 3470 µM)
CC50 (in vitro; ID50, MEAN, RSV experiments, mean): 946 µg/mL (≈ 3870 µM)
CC50 (in vitro; ID50, PIV-1 experiment): 1000 µg/mL (≈ 4090 µM)
CC50 (in vitro; ID50, PIV-3 experiment): 1000 µg/mL (≈ 4090 µM)
CC50 (in vitro; ID50, RSV A-Tracy experiment): 1000 µg/mL (≈ 4090 µM)
CC50 (in vitro; ID50, RSV B-18537 experiment): 1000 µg/mL (≈ 4090 µM)
CC50 (in vitro; ID50, RSV B-46791 experiment): 1000 µg/mL (≈ 4090 µM)
CC50 (in vitro; ID50, RSV B-47063 experiment): 1000 µg/mL (≈ 4090 µM)
influenza inhibition (words) (Influenza A/NWS/33 virus [2]): inhibitory to the virus infection
Mean SaO2 % (Influenza A/NWS/33 virus [2]; 75 mg/kg/day i.p. bid × 5, daily for 10 days): 81%
Mean Score (lung) (Influenza A/NWS/33 virus [2]; [9]): 0.3
Mean Virus Titer (log10) (Influenza A/NWS/33 virus [2]; [9]): 3.9 log10
Infected, Treated Surv/Total (Influenza A/NWS/33 virus [2]; [10]): 10/10
MST (Influenza A/NWS/33 virus [2]; [10]): > 21.0 days
Infected, Treated Surv/Total (Influenza A/NWS/33 virus [2]; 75 mg/kg/day i.p. bid × 5 from 4 hr post-virus, female, listed as ribavirin): All infected, ribavirin-treated mice survived the infection
influenza inhibition (words) (Influenza A/NWS/33 virus [2]; listed as ribavirin): significant influenza inhibition
Lung titer (RSV titer log 10/g lung, Mean ± S.D.) (RSV A2 [3]; 40 mg/kg oral): 3.30 ± 0.5 log 10 /g lung
Lung titer (antilog, in parentheses) (RSV A2 [3]; 40 mg/kg oral): 1,995
reduction in lung titers (RSV A2 [3]; 40 mg/kg oral): > 90%
% kill (RSV A2 [3]; 40 mg/kg oral, versus control): 80%
ED50 (RSV A2 [3]; individual experiments, read-out: ED50): > 90 mg/kg
ED50 (RSV A2 [3]; mean, read-out: ED50, Mean ± SEM): > 90 mg/kg
EC50 (Influenza A; HEp-2, FLU-A, A-Leningrad, read-out: ED50 (the source's name)): 6 µg/mL (≈ 24.6 µM)
EC50 (Influenza A; HEp-2, FLU-A, A-Shanghai, read-out: ED50 (the source's name)): 6 µg/mL (≈ 24.6 µM)
EC50 (Influenza A; HEp-2, FLU-A, B-Japan, read-out: ED50 (the source's name)): 1.6 µg/mL (≈ 6.55 µM)
EC50 (Influenza A; HEp-2, FLU-A, B-NWS/33, read-out: ED50 (the source's name)): 1 µg/mL (≈ 4.09 µM)
EC50 (Influenza A; HEp-2, FLU-A, B-Portchalm, read-out: ED50 (the source's name)): 1 µg/mL (≈ 4.09 µM)
EC50 (Influenza A; HEp-2, FLU-A, mean of all strains, read-out: ED50, MEAN): 8.2 µg/mL (≈ 33.6 µM)
EC50 (Influenza A; HEp-2, Influenza A, HEp2 cells, Table 1 experiments 1-3, read-out: ED50 (the source's name)): 15 µg/mL (≈ 61.4 µM)
ED50 (Influenza A; Influenza A, HEp2 cells, Table 1 experiments 1-3): 14.3 µg/mL and 14 µg/mL
EC50 (Adenovirus 7): > 1000 µg/mL
EC50 ([4]; HEp-2, RSV B-46791, read-out: ED50 (the source's name)): 8 µg/mL (≈ 32.8 µM)
EC50 ([4]; HEp-2, RSV B-47063, read-out: ED50 (the source's name)): 12 µg/mL (≈ 49.1 µM)
EC50 ([4]; HEp-2, RSV, mean of all strains, read-out: ED50, MEAN): 11.9 µg/mL (≈ 48.7 µM)
Host Wt. Change [5]: 0.6 g
Toxicity controls Surv/Total [5]: 5/5

Cl.NC12CC3CC(CC(C3)C1)C2 [Amantadine, 1-Adamantanamine HCL]
inhibition of influenza A infection (overall words) (Influenza A/NWS/33 virus [6]): ineffective
central nervous system side effects (Influenza viruses): causes some central nervous system side effects
shortening of fever duration and respiratory symptoms (Influenza viruses): about 50%

COc1ccc2c(=O)oc3c(OC)cc(CCN(C)C)c4c(=O)oc1c2c34 [taspine]
anti-inflammatory activity [7]: exhibits anti-inflammatory activity
RNA-directed DNA polymerase activity [8]: inhibit RNA-directed DNA polymerase activity

Reference: patent publication US5211944A, “Proanthocyanidin polymers having antiviral activity and methods of obtaining same” (Shaman Pharmaceuticals, Inc., priority 1991, dated 1993)
